Reference: PMC6105804, “In Vitro and In Vivo Evaluation of APX001A/APX001 and Other Gwt1 Inhibitors against Cryptococcus” (Antimicrobial Agents and Chemotherapy, 2018)
In brackets after ≈: the same amount, converted by molar mass. Where two headings read alike, the source gives them in different places.

Key:
C. neoformans [1] = assay: Broth microdilution susceptibility testing (CLSI M27-A3); assay type: cell-based, Cryptococcus neoformans; details: Cryptococcus neoformans
Method in brief: (§1)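 CLSI broth microdilution (M27-A3 yeasts, M38-A2 molds), final 2 to 0.002 µg/ml, 35 °C for 40-48 h (C. albicans, A. fumigatus) or 72 h (C. neoformans). MIC for yeasts at 50% growth reduction versus DMSO control. A. fumigatus endpoint is MEC, lowest concentration shortening hyphae.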

C. gattii = assay: as above; assay type: cell-based; details: Cryptococcus gattii
Method in brief: as §1

C. albicans 90028 = assay: as above; assay type: cell-based, Candida albicans; details: Candida albicans, 90028; read-out: MIC, C. albicans 90028
Method in brief: as §1

A. fumigatus MYA3626 = assay: Broth microdilution susceptibility testing for molds (CLSI M38-A2); assay type: cell-based; details: Aspergillus fumigatus, MYA3626; read-out: MIC or MEC for A. fumigatus MYA3626
Method in brief: as §1

[2] = tested on: FLC-susceptible and FLC-nonsusceptible/resistant strains of C. neoformans and C. gattii; assay: Broth microdilution, summary over the 18-strain Cryptococcus collection; assay type: cell-based, Cryptococcus neoformans and Cryptococcus gattii; details: 18 strains of C. neoformans and C. gattii; for MIC: read-out: Geometric mean MIC
Method in brief: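 CLSI M27-A3 broth microdilution was run with final drug concentrations of 2 to 0.002 μg/ml from DMSO dilutions, incubated at 35°C for 72 h for C. neoformans. MIC was the lowest concentration giving 50% growth reduction versus the no-drug control, read with a mirror.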

[3] = Single-dose mouse pharmacokinetics of prodrugs with or without ABT; assay type: in vivo; details: for AUC: male, CD-1, mouse, plasma, 26 mg/kg
Procedure: The area under the curve (AUC) was calculated from time zero to the time of the last measurable concentration. The active metabolite concentrations in plasma (APX001A, APX2039, APX2020, and APX2041) were determined by liquid chromatography-tandem mass spectrometry. PK parameters were determined using Phoenix WinNonlin (v7.0) software and a noncompartmental model.

[4] = parameters: method as in ref 23 = [23]; 23. Zhao Y , Lee M , Lee A , Paderu P , Park S , Perlin DS 2018 APX001 is effective against echinocandin and multi-drug resistant Candida isolates . Abstr 28th ECCMID , Madrid, Spain .; details: female CD-1 mice, cited from earlier work
[5] = parameters: method as in ref 11, 12 = [11]; 11. Hodges MR , Ople E , Shaw KJ , Mansbach RS , van Marle S , van Hoogdalem E , Kramer W , Wedel P 2017 Phase 1 study to assess safety, tolerability and pharmacokinetics of single and multiple oral d || [12]; 12. Hodges MR , Ople E , Shaw KJ , Mansbach RS , van Marle S , van Hoogdalem E , Wedel P , Kramer W 2017 First-in-human study to assess safety, tolerability and pharmacokinetics of APX001 administered; details: phase 1 studies in healthy volunteers; cited from earlier work
PIGW protein = tested on: PIGW protein; parameters: method as in PMID 22143530; details: closest mammalian ortholog of fungal Gwt1; cited from earlier work
[6] = mouse, in vivo; cited from earlier work
C. neoformans [7] = tested on: C. neoformans; parameters: method as in PMID 23740727; details: 46 strains of C. neoformans, global study; cited from earlier work
[8] = 72 h, Table 1, 50% growth inhibition for FLC, caspofungin and APX compounds, 100% for AMB, 72 h, read-out: MIC, C. neoformans H99
[9] = C. neoformans isolate 14116, read-out: MIC
[10] = C. neoformans isolate 76484, read-out: MIC
[11] = C. neoformans isolate DUMC 118.00 (FLC resistant), read-out: MIC
[12] = C. neoformans isolate DUMC 158.03 (FLC resistant), read-out: MIC
[13] = C. neoformans isolate MYA-4564, read-out: MIC
[14] = C. neoformans isolate MYA-4565, read-out: MIC
[15] = C. neoformans isolate MYA-4566, read-out: MIC
[16] = C. neoformans isolate MYA-4567, read-out: MIC
[17] = Table 2, C. neoformans isolate H99, read-out: MIC
[18] = C. gattii isolate MYA-4093, read-out: MIC
[19] = C. gattii isolate MYA-4094, read-out: MIC
[20] = C. gattii isolate MYA-4560 (first listing, r17), read-out: MIC
[21] = C. gattii isolate MYA-4560 (second listing, r21), read-out: MIC
[22] = C. gattii isolate MYA-4561, read-out: MIC
[23] = C. gattii isolate MYA-4562, read-out: MIC
[24] = C. gattii isolate MYA-4563, read-out: MIC
[25] = C. gattii isolate MYA-4877, read-out: MIC
[26] = C. gattii isolate RSA-MW-3615 (FLC resistant), read-out: MIC
[27] = Table 1, 50% growth inhibition for FLC, caspofungin and APX compounds, 100% for AMB, read-out: MIC, C. gattii WM276
[28] = 100-mg/kg ABT orally 2 h prior to APX001 i.p.

SMILES	MIC (C. neoformans [1]; [8]) [µg/mL]	MIC (C. neoformans [1]; [9]) [µg/mL]	MIC (C. neoformans [1]; [10]) [µg/mL]	MIC (C. neoformans [1]; [11]) [µg/mL]	MIC (C. neoformans [1]; [12]) [µg/mL]	MIC (C. neoformans [1]; [13]) [µg/mL]	MIC (C. neoformans [1]; [14]) [µg/mL]	MIC (C. neoformans [1]; [15]) [µg/mL]	MIC (C. neoformans [1]; [16]) [µg/mL]	MIC (C. neoformans [1]; [17]) [µg/mL]	MIC (C. gattii; [18]) [µg/mL]	MIC (C. gattii; [19]) [µg/mL]	MIC (C. gattii; [20]) [µg/mL]	MIC (C. gattii; [21]) [µg/mL]	MIC (C. gattii; [22]) [µg/mL]	MIC (C. gattii; [23]) [µg/mL]	MIC (C. gattii; [24]) [µg/mL]	MIC (C. gattii; [25]) [µg/mL]	MIC (C. gattii; [26]) [µg/mL]	MIC (C. gattii; [27]) [µg/mL]	further results
Nc1ncccc1-c1cc(Cc2ccc(COc3ccccn3)cc2)no1 [APX001A]	0.25	0.125	0.125	0.25	0.25	0.125	0.5	0.25	0.25	0.125	0.5	0.25	0.25	0.25	0.5	0.25	0.5	0.25	0.125	0.125	MIC (C. albicans 90028): 0.008 µg/mL; MIC (A. fumigatus MYA3626): 0.016 µg/mL; MIC90 [2]: 0.5 µg/mL; MIC [2]: 0.241 µg/mL; Ratio of AUC with ABT/AUC without ABT, i.p. dosing ([3]; 26 mg/kg prodrug): 5.6; Ratio of AUC with ABT/AUC without ABT, p.o. dosing ([3]; 26 mg/kg prodrug): 15.0; AUC ([3]; intraperitoneal, AUC of analyte after 26 mg/kg prodrug, 100 mg/kg ABT orally 2 h before, read-out: Avg AUC resulting from 26-mg/kg dose, i.p. dosing + ABT): 24300 ± 17700 ng·h/mL; AUC ([3]; ip, AUC of analyte after 26 mg/kg of the corresponding prodrug, male CD-1 mice, no ABT, read-out: Avg AUC resulting from 26-mg/kg dose, i.p. dosing): 4360 ± 110 ng·h/mL; AUC ([3]; po, AUC of analyte after 26 mg/kg prodrug, 100 mg/kg ABT orally 2 h before, read-out: Avg AUC resulting from 26-mg/kg dose, p.o. dosing + ABT): 41500 ± 8090 ng·h/mL; AUC ([3]; po, AUC of analyte in plasma after 26 mg/kg of the corresponding prodrug, male CD-1 mice, no ABT, read-out: Avg AUC resulting from 26-mg/kg dose, p.o. dosing): 2760 ± 230 ng·h/mL; fold increase in AUC with ABT [4, 28]: 9 fold; half-life of the active moiety with ABT [4, 28]: 8.8 h; half-life of the active moiety without ABT ([4]; APX001 i.p.): 1.3 h; exposures in humans [5]: ≥ 200000 ng·h/mL; half-life in humans [5]: 60 h; sensitivity of PIGW protein to inhibition (PIGW protein): not sensitive to inhibition; half-life in mice [6]: 1.40 to 2.75 h
OC(Cn1cncn1)(Cn1cncn1)c1ccc(F)cc1F [FLC, fluconazole, reference compound]	2	4	4	64	32	4	1	2	1	1	2	2	1	1	4	2	4	4	64	1	MIC (C. albicans 90028): 0.5 µg/mL; MIC (A. fumigatus MYA3626): > 16 µg/mL; MIC90 [2]: 64 µg/mL; MIC [2]: 3.56 µg/mL; MIC90 (C. neoformans [7]): 4 µg/mL (≈ 13.1 µM)
